Measured values from patent US20130190289A1, “COMPOUNDS AND METHODS FOR THE TREATMENT OR PREVENTION OF FLAVIVIRUS INFECTIONS” (priority 2010, published 2013).
Where two headings read alike, the source gives them in different places.

Experiments:
[1] = [3H]Thymidine incorporation assay (cell toxicity); details: human
[2] = tested on: HCV replicon (genotype 1b) in Huh7 cell line ET; test: microbe, parasite or virus in culture; assay type: cell-based, HCV genotype 1b; details: Hepatitis C virus
[3] = tested on: HCV sub-genomic replicon of genotype 1a in replicon cell line W11.8; test: microbe, parasite or virus in culture; assay type: cell-based, HCV genotype 1a; details: Hepatitis C virus
From the text: This procedure below describes the HCV replicon assay using a Huh7 hepatoma cell line harboring a highly cell culture-adapted replicon (genotype 1b) (hereafter named cell line ET). The ET cells contained the highly cell culture-adapted replicon I389luc-ubi-neo/NS3-3′/5.1 construct that carried, in addition to the neomycin gene, an integrated copy to the firefly luciferase gene (Krieger, N; Lohmann, V; Bartenschlager, R. Enhancement of hepatitis C virus RNA replication by cell culture-adaptive mutations. J. Virol. 2001, 75, 4614-4624). A replicon cell line W11.8, containing the 1a genotype of HCV was also used. These two cell lines (genotype 1b and 1a) allowed measurement of RNA replication and translation by measuring luciferase activity (against genotype 1b) or by measuring the NS5A level using the ELISA assay (against genotype 1a). […] ET cell lines were maintained in cultures at a sub-confluent level (<85%). The culture media used for cell passaging consisted of DMEM (Gibco BRL Laboratories, Mississauga, ON, Canada) supplemented with 10% fetal bovine serum with 1% penicilin/streptomycin, 1% glutamine, 1% sodium pyruvate, 1% non-essential amino acids, and 180 µg/ml of G418 final concentration.
Replicon cell lines W11.8 containing a sub-genomic replicon of genotype 1a was used for the HCV Replicon Cell-Based detection using the ELISA. The RNA replication in presence of different drug concentrations was indirectly measured in these cell lines by the level of NS5A protein content upon drug treatment for four days. The NS5A is a non-structural protein of HCV and is used as marker of HCV replication in this assay.
For the treatment of the cells with the testing drug, Culture medium was removed from the 175 cm^2 T-flask by aspiration. Cell monolayer was rinsed with 10-20 mL of PBS 1× at room temperature. PBS was removed by aspiration. Cells were trypsinized using 3 mL of Trypsin (0.25%)/EDTA (0.1%) solution. Flasks were incubated at 37° C. (incubator) for 7 minutes. Complete medium (9 mL) without G418 is then added. Cell clumps were disrupted by pipetting up and down several times.
The cell suspension was then transferred to a 50 mL Falcon polypropylene tube. Cells were then counted several times using the haemocytometer. Cells were diluted at 50,000 cells/mL with complete DMEM without G418, then transferred into a sterile reservoir. Using a multichannel pipet, approximately 5,000 viable cells (100 μL) were plated per well in a white opaque 96-well microtiter plate. After an incubation period of 2-4 hours at 37° C. in a 5% CO2 incubator, compounds were added at various concentrations.
Drugs were resuspended in DMSO at a stock concentration of 100 mM or 10 mM. […] Then, drugs were diluted at twice the final concentration in the same medium (without G418) described earlier, in sterile 96-deep well plate and according to a particular template (see Appendix). One volume (100 μL) of each drug dilution was then added to each well that contains cells.
Sixteen wells were used as control (0% inhibition) without drug. Eight wells were used as background control (100% inhibition) containing 2 μM (final concentration) of the reference compound. […] Values from 100% inhibited wells were averaged and used as the background value. Cells are further incubated for 4 days at 37° C. in a 5% CO2 incubator.
For the measurement of NS5A protein content, following the incubation time of four days, the media was throwed into an appropriate waste container by inverting the plate. Any residual liquid was removed by tapping gently on absorbent paper several times. The plates were then washed once with 150 μL of PBS per well, and then incubated for 5 minutes at room temperature on a shaker (500 rpm).

[4] = Huh-7, read-out: HCV-Replicon-(Luci-ET) 1b_IC50
[5] = W11.8, read-out: HCV-Replicon-ELISA-1a IC50
[6] = Huh-7, 96 h, read-out: HCV-Replicon (Luci-ET)-1b_IC50
[7] = W11.8, 96 h, read-out: HCV-Replicon-ELISA-1a IC50

## CC1CCC(C(=O)N(c2cc(C#CC(C)(C)C)sc2C(=O)O)[C@H]2CCN(C)C2=O)CC1 (single isomer, unassigned) [Compound 91]
[1]
  CC50 at 72 h: > 100 µM
[2]; [4]
  IC50: < 0.1 µM
[3]; [5]
  IC50: < 0.1 µM

## CC[C@@H](C(=O)N1CCOCC1)N(C(=O)c1ccc(Cl)cc1Cl)c1cc(C#CC(C)(C)C)sc1C(=O)O [Compound 143, (S)-5-(3,3-Dimethylbut-1-ynyl)-3-[(2,4-dichlorobenzoyl)-[1-(morpholine-4-carbonyl)propyl]amino]-thiophene-2-carboxylic acid]
[1]
  CC50 at 72 h: 10 to 100 µM
[2]; [6]
  IC50: < 0.1 µM
[3]; [7]
  IC50: < 0.1 µM

## CC(C)N1CCC[C@H](N(c2cc(C#CC(C)(C)C)sc2C(=O)O)C(=O)[C@H]2CC[C@H](C)CC2)C1=O [Compound 149, (S)-5-(3,3-Dimethylbut-1-ynyl)-3-((trans)-4-methyl-N-(1-isopropyl-2-oxopiperidin-3-yl)cyclohexanecarboxamido)thiophene-2-carboxylic acid]
[1]
  CC50 at 72 h: 10 to 100 µM
[2]; [6]
  IC50: < 0.1 µM
[3]; [7]
  IC50: < 0.1 µM

## CC[C@@H](C(=O)N1CCOC(C)C1)N(C(=O)C1CCC(C)CC1)c1cc(C#CC(C)(C)C)sc1C(=O)O (some centres unmarked) [Compound 56]
[1]
  CC50 at 72 h: 10 to 100 µM
[2]; [4]
  IC50: < 0.1 µM
[3]; [5]
  IC50: < 0.1 µM

## CC(C)(C)C#Cc1cc(N(C(=O)[C@H]2CC[C@H](C)CC2)[C@H]2CCN(CCO)C2=O)c(C(=O)O)s1 [Compound 139, 5-(3,3-Dimethylbut-1-ynyl)-3-[[(3S)-1-(2-hydroxyethyl)-2-oxo-pyrrolidin-3-yl]-(trans-4-methylcyclohexanecarbonyl)amino]thiophene-2-carboxylic acid]
[1]
  CC50 at 72 h: > 100 µM
[2]; [6]
  IC50: < 0.1 µM
[3]; [7]
  IC50: < 0.1 µM

## CC1CCC(C(=O)N(c2cc(C#CC(C)(C)C)sc2C(=O)O)[C@H]2CCCCN(C)C2=O)CC1 (stereo partly drawn) [Compound 95, 5-(3,3-dimethylbut-1-yn-1-yl)-3-(4-methyl-N—((S)-1-methyl-2-oxoazepan-3-yl)cyclohexanecarboxamido)thiophene-2-carboxylic acid]
[1]
  CC50 at 72 h: 10 to 100 µM
[2]; [4]
  IC50: < 0.1 µM
[3]; [5]
  IC50: < 0.1 µM

## CC[C@@H](C(=O)N1CC2CC1CO2)N(c1cc(C#CC(C)(C)C)sc1C(=O)O)C(=O)[C@H]1CC[C@H](C)CC1 (some centres unmarked) [Compound 78]
[1]
  CC50 at 72 h: > 100 µM
[2]; [4]
  IC50: < 0.1 µM
[3]; [5]
  IC50: < 0.1 µM

## CC1CCC(C(=O)N(CCC(=O)N(C)C)c2cc(C#CC(C)(C)C)sc2C(=O)O)CC1 (centres unmarked) [Compound 98]
[1]
  CC50 at 72 h: > 100 µM
[2]; [4]
  IC50: < 0.1 µM
[3]; [5]
  IC50: 0.1 to 1 µM

## CC(C)(C)C#Cc1cc(N(CC(=O)N2CCOCC2)C(=O)c2ccc(Cl)cc2Cl)c(C(=O)O)s1 [Compound 124, 3-[(2,4-dichlorobenzoyl)-(2-morpholino-2-oxo-ethyl)amino]-5-(3,3-dimethylbut-1-ynyl)thiophene-2-carboxylic acid]
[1]
  CC50 at 72 h: > 100 µM
[2]; [6]
  IC50: < 0.1 µM
[3]; [7]
  IC50: < 0.1 µM

## CC(C)(C)C#Cc1cc(N(CC(=O)N2CCCC2)C(=O)[C@H]2CC[C@H](C)CC2)c(C(=O)O)s1 [Compound 6, 5-(3,3-Dimethyl-but-1-ynyl)-3-[(trans-4-methyl-cyclohexanecarbonyl)-(2-oxo-2-pyrrolidin-1-yl-ethyl)-amino]-thiophene-2-carboxylic acid]
[1]
  CC50 at 72 h: > 100 µM
[2]; [4]
  IC50: < 0.1 µM
[3]; [5]
  IC50: < 0.1 µM

## CC(C)N1CCCC[C@H](N(c2cc(C#CC(C)(C)C)sc2C(=O)O)C(=O)[C@H]2CC[C@H](C)CC2)C1=O [Compound 146, (S)-5-(3,3-Dimethylbut-1-ynyl)-3-((trans)-4-methyl-N-(1-isopropyl-2-oxoazepan-3-yl)cyclohexanecarboxamido)thiophene-2-carboxylic acid]
[1]
  CC50 at 72 h: 10 to 100 µM
[2]; [6]
  IC50: < 0.1 µM
[3]; [7]
  IC50: < 0.1 µM

## CCN(CC)C(=O)CN(c1cc(C#CC(C)(C)C)sc1C(=O)O)C(=O)[C@H]1CC[C@H](C)CC1 [Compound 17]
[1]
  CC50 at 72 h: > 100 µM
[2]; [4]
  IC50: < 0.1 µM
[3]; [5]
  IC50: < 0.1 µM

## CN1CCOC[C@H](N(c2cc(C#CC(C)(C)C)sc2C(=O)O)C(=O)[C@H]2CC[C@H](C)CC2)C1=O [Compound 136, (S)-5-(3,3-Dimethylbut-1-ynyl)-3-[(trans)-4-methyl-N-(4-methyl-5-oxo-1,4-oxazepan-6-yl)cyclohexanecarboxamido]thiophene-2-carboxylic acid]
[1]
  CC50 at 72 h: > 100 µM
[2]; [6]
  IC50: < 0.1 µM
[3]; [7]
  IC50: < 0.1 µM

## CC[C@@H](C(=O)N1CC(OC)C1)N(c1cc(C#CC(C)(C)C)sc1C(=O)O)C(=O)[C@H]1CC[C@H](C)CC1 [Compound 79]
[1]
  CC50 at 72 h: > 100 µM
[2]; [4]
  IC50: < 0.1 µM
[3]; [5]
  IC50: < 0.1 µM

## CC(C)(C)C#Cc1cc(N(C(=O)[C@H]2CC[C@H](C)CC2)[C@H]2CCN([C@H]3CCOC3)C2=O)c(C(=O)O)s1 [Compound 156, 5-(3,3-Dimethylbut-1-ynyl)-3-[(trans-4-methylcyclohexanecaronyl)-[(3S)-2-oxo-1-[(3S)-tetrahydrofuran-3-yl]pyrrolidin-3-yl]amino]thiophene-2-carboxylic acid]
[2]; [6]
  IC50: < 0.1 µM
[3]; [7]
  IC50: 0.004 µM

## COC[C@@H](C(=O)N1CCCC1)N(C(=O)C1CCC(C)CC1)c1cc(C#CC(C)(C)C)sc1C(=O)O (some centres unmarked) [Compound 35]
[1]
  CC50 at 72 h: 10 to 100 µM
[2]; [4]
  IC50: < 0.1 µM
[3]; [5]
  IC50: < 0.1 µM

## CCC[C@@H](C(=O)N1CCOCC1)N(C(=O)C1CCC(C)CC1)c1cc(C#CC(C)(C)C)sc1C(=O)O (some centres unmarked) [Compound 64]
[1]
  CC50 at 72 h: 10 to 100 µM
[2]; [4]
  IC50: < 0.1 µM
[3]; [5]
  IC50: < 0.1 µM

## COCCN1CCCC[C@H](N(c2cc(C#CC(C)(C)C)sc2C(=O)O)C(=O)[C@H]2CC[C@H](C)CC2)C1=O [Compound 138, (S)-5-(3,3-Dimethylbut-1-ynyl)-3-((trans)-4-methyl-N-(1-(2-methoxyethyl)-2-oxoazepan-3-yl)cyclohexanecarboxamido)thiophene-2-carboxylic acid]
[1]
  CC50 at 72 h: > 100 µM
[2]; [6]
  IC50: < 0.1 µM
[3]; [7]
  IC50: < 0.1 µM

## CN1CCCC[C@H](N(C(=O)c2ccc(Cl)cc2Cl)c2cc(C#CC(C)(C)C)sc2C(=O)O)C1=O [Compound 137, (S)-5-(3,3-Dimethylbut-1-ynyl)-3-[(2,4-dichlorobenzoyl)-N-(1-methyl-2-oxoazepan-3-yl)amino]-thiophene-2-carboxylic acid]
[1]
  CC50 at 72 h: > 100 µM
[2]; [6]
  IC50: < 0.1 µM
[3]; [7]
  IC50: < 0.1 µM

## CCN1CCCC[C@H](N(c2cc(C#CC(C)(C)C)sc2C(=O)O)C(=O)[C@H]2CC[C@H](C)CC2)C1=O [Compound 134, (S)-5-(3,3-Dimethylbut-1-ynyl)-3-((trans)-4-methyl-N-(1-ethyl-2-oxoazepan-3-yl)cyclohexanecarboxamido)thiophene-2-carboxylic acid]
[1]
  CC50 at 72 h: 10 to 100 µM
[2]; [6]
  IC50: < 0.1 µM
[3]; [7]
  IC50: < 0.1 µM

## C[C@@H](C(=O)N(C)C)N(c1cc(C#CC(C)(C)C)sc1C(=O)O)C(=O)[C@H]1CC[C@H](C)CC1 [Compound 3, 5-(3,3-Dimethyl-but-1-ynyl)-3-[((S)-1-dimethylcarbamoyl-ethyl)-(trans-4-methyl-cyclohexanecarbonyl)-amino]-thiophene-2-carboxylic acid]
[1]
  CC50 at 72 h: > 100 µM
[2]; [4]
  IC50: < 0.1 µM
[3]; [5]
  IC50: < 0.1 µM

## CCN1CCC[C@H](N(c2cc(C#CC(C)(C)C)sc2C(=O)O)C(=O)[C@H]2CC[C@H](C)CC2)C1=O [Compound 148, (S)-5-(3,3-Dimethylbut-1-ynyl)-3-((trans)-4-methyl-N-(1-ethyl-2-oxopiperidin-3-yl)cyclohexanecarboxamido)thiophene-2-carboxylic acid]
[1]
  CC50 at 72 h: > 100 µM
[2]; [6]
  IC50: < 0.1 µM
[3]; [7]
  IC50: < 0.1 µM
